Reference: patent US20180000798A1, “USE OF ACLIDINIUM” (Almirall, S.A., priority 2012, published 2018)
Read-outs that look alike come from different tables or passages of the source.

Key:
patients with COPD = settings: previous trials, cited from earlier work
[1] = test system: patients with moderate to severe COPD; test: Phase III randomized, double-blind, placebo controlled crossover trial; physical activity measured with multisensor armband; assay type: in vivo; settings: week 3; for Δ Comparison versus placebo, change from baseline in daily active energy expenditure / Δ Comparison versus placebo, change from baseline in duration of at least moderate activity: 400 micrograms aclidinium bromide per inhalation twice-daily, p < 0.05
Description: In a Phase III randomized, double-blind, placebo controlled, 2 period crossover trial, patients with moderate to severe COPD received a dose of aclidinium equivalent to a metered nominal dose of 400 micrograms of aclidinium bromide per inhalation twice-daily (in the morning, 9 am, and in the evening, […]) and placebo for two periods of 3 weeks, with a washout period of 2 weeks between treatment periods.
Patients were randomised to receive either a dose of aclidinium equivalent to a metered nominal dose of 400 micrograms of aclidinium bromide per inhalation twice-daily in the first period followed by placebo in the second period, or to receive placebo in the first period followed by aclidinium bromide 400 micrograms twice-daily in the second period. Both aclidinium bromide and placebo were administered with a Genuair® multidose dry powder inhaler.
Physical activity (as minutes of at least moderate activity per day and as average active energy expenditure expressed in Kcal) was measured in the last week of the treatment with aclidinium and placebo using a multisensor armband (SenseWear™ Pro Armband; BodyMedia, Pittsburgh, Pa., USA), was worn on the upper right over the triceps muscle, according to the method described in Watz B et al, Eur Respir J, 2009; 33: 262-272. The multisensory armband incorporates a biaxial accelerometer that records steps per day and physiological sensors of energy expenditure.
A valid period of measurement was defined as 5 days of measurement with the patients wearing the accelerometer at least 22 hours per day.
The Intention-to-Treat (ITT) population included 109 patients.

[2] = Solubility of aclidinium bromide; assay type: physicochemical
Description: Aclidinium bromide is a white powder with a molecular formula of C26H30NO4S2Br and a molecular mass of 564.56.

[3] = metered nominal dose 400 micrograms aclidinium bromide per inhalation twice-daily, adjusted mean, n = 85

C[N+]1(C)[C@@H]2C[C@@H](OC(=O)C(O)(c3cccs3)c3cccs3)C[C@H]1[C@@H]1O[C@@H]12 [tiotropium]
Improvement in physical activity versus placebo (patients with COPD; listed as tiotroplum): not observed | Improvement in physical activity versus placebo (patients with COPD): not statistically demonstrated improvements in physical activity

O=C(O[C@H]1C[N+]2(CCCOc3ccccc3)CCC1CC2)C(O)(c1cccs1)c1cccs1 [Aclidinium, 3(R)-(2-hydroxy-2,2-dithien-2-ylacetoxy)-1-(3-phenoxypropyl)-1-azoniabicyclo[2.2.2] octane]
Δ Comparison versus placebo, change from baseline in daily active energy expenditure [1]: 55 (p < 0.05) Kcal | Δ Comparison versus placebo, change from baseline in duration of at least moderate activity [1]: 10 (p < 0.05) minutes | Δ Comparison versus placebo, change from baseline in daily active energy expenditure ([1]; listed as aclidinium bromide): 55 kcal | Δ Comparison versus placebo, change from baseline in duration of at least moderate activity ([1]; listed as aclidinium bromide): 10 min | Change from baseline in daily active energy expenditure [1, 3]: 21.9 kcal | Change from baseline in duration of at least moderate activity [1, 3]: 4.2 min | Solubility in ethanol ([2]; ethanol): very slightly soluble | Solubility in methanol ([2]; methanol): sparingly soluble | Solubility in water ([2]; water): very slightly soluble
